The text below walks through data of PubChem BioAssay AID2305 (GlaxoSmithKline (GSK), 2010).

The test system of this experiment is P. falciparum 3D7 growth, pLDH absorbance. Description: blood-stage malaria parasite growth potency – strain 3D7, dose response (AID 2305).
In general, IC50 refers to the concentration needed to halve the response being measured. The molecule `C[C@@H]1CCC[C@H](C)N1C[C@@H](O)CNS(=O)(=O)c1cccc(C(F)(F)F)c1` returned an IC50 of 690 nM.
`Cc1cc(Nc2ccccc2)nc(NCCOc2ccccc2)n1`: the half-maximal inhibitory concentration (IC50) amounted to 730 nM.
Consider `COc1cc2ncnc(Nc3ccc(Br)c(Cl)c3)c2cc1OC`, for which the IC50 was 720 nM.
On to `CC[C@H]1CN2CC[C@H]1C[C@H]2[C@H](O)c1cc(/C=C/c2ccc(F)cc2)nc2ccc(OC)cc12`, for which the IC50 came out at 30 nM.
In the case of `CC(=O)Nc1ccc(CN(C)C2CCN(c3cc(NC(=O)c4cccc(C)c4)ccn3)CC2)cc1` it was 900 nM; in that of `COc1ccc2c(c1)nc(CN=C(N)N)n2Cc1ccc(Cl)cc1`, 360 nM.
In turn, `CCC(C)c1ccc(NC(=O)C(C)c2ccc([N+](=O)[O-])cc2)cc1` (stereo not given) yielded a concentration for half-maximal inhibition (IC50) of 180 nM.
`Cc1cc(NC(=O)Nc2cccc(C#N)c2)c2ccccc2n1`: the IC50 amounted to 580 nM.
For the molecule `Oc1ccc2c(c1CNC1CCCCC1)CCCC2`, the IC50 was 940 nM.
Take `Cc1cccc2[nH]c(-c3ccc(-c4cccc(CNCc5cccc(N)c5)c4)s3)nc12`: the concentration for half-maximal inhibition (IC50) turned out to be 520 nM.
For the molecule `Cc1cc(N[C@@H](Cc2ccccc2)C(=O)NCCc2ccccc2)nc(NCC2CCCCC2)n1`, the IC50 came to 920 nM.
With `Cc1nc(-c2nc(NCCc3ccncc3)ncc2-c2ccsc2)sc1C`, the IC50 worked out at 300 nM.
Regarding `COc1cc(CC(C)NCC(O)c2cccc(C(F)(F)F)c2)ccc1OCc1ccccc1` (stereo not given), the IC50 stood at 820 nM.
`O=C(Nc1ccc(C(F)(F)F)cc1)c1ccc(S(=O)(=O)NCC2CCCN(CC3CCCCC3)C2)cc1` (stereo not given) displayed an IC50 of 150 nM.
`Cc1cc(N2CCN(CC3CCN(C)CC3)CC2)nc(Nc2ccc(Br)cc2)n1` displayed an IC50 of 440 nM.
On to `CC1(C)N=C(N)N=C(N)N1OCc1cccc(C#N)c1`, for which the IC50 is 10 nM.
`Nc1nccc2ccc(-c3ccsc3)cc12` registered a 50% inhibitory concentration (IC50) of 330 nM.
Consider `FC(F)(F)Oc1ccc(Nc2cc(-c3ccncc3)nc(-c3cccnc3)n2)cc1`, for which the IC50 amounted to 670 nM.
In turn, `COCC(C)n1c(C)cc(C(=O)CSc2nnc(Nc3ccccc3)s2)c1C` (stereo not given) showed a half-maximal inhibitory concentration (IC50) of 740 nM.
`NC1CCCN(Cc2cccc(-c3ccc(-c4nc5ccccc5[nH]4)s3)c2)C1` (stereo not given) registered an IC50 of 580 nM.
`COC(=O)CCCCOc1c(OC)cc(Cc2cnc(N)nc2N)cc1OC` came in with an IC50 of 40 nM.
For the molecule `O=C(/C=C/c1ccc(Cl)c(Cl)c1)NCCCCCCN1CCCN(C(=O)Nc2cc(Cl)cc(Cl)c2)CC1`, the IC50 turned out to be 780 nM.
Then `COc1cccc(CCNCc2ccc(-c3cccc(CNC4CCCC4)c3)cc2)c1`, with 730 nM.
The molecule `CCOC(=O)c1c(-c2ccccc2)[nH]c2c(sc3ccccc32)c1=O` showed an IC50 of 370 nM.
In the case of `Cc1nc(-c2ccc(C#N)cc2)sc1C(=O)NCCCCN1CCC(c2ccc3c(c2OCCO)CCCC3)CC1` it was 850 nM; in that of `Cc1ccccc1C1CCN(C2CCC(NC(=O)/C=C/c3cc(F)cc(F)c3)CC2)CC1` (stereo not given), 830 nM.
Take `CC(C)(C)c1cc(C(=O)N2CCC(c3ccccn3)CC2)n(Cc2ccccc2)n1`: the concentration for half-maximal inhibition (IC50) worked out at 960 nM.
In turn, `COc1cccc2c1CCN(CCN1CCC(NC(=O)c3ccc(-c4cccc(Cl)c4Cl)cc3)CC1)C2` showed an IC50 of 700 nM.
The molecule `Fc1ccc(-c2cc(NCCCn3ccnc3)nc(-c3cccnc3)n2)cc1` yielded an IC50 of 970 nM.
In turn, `Cc1nc(-c2cccc(C(=O)Nc3cnc4ccccc4c3)c2)no1` had a 50% inhibitory concentration (IC50) of 1160 nM.
`Oc1ccc(CCNCCCCCCNCCc2ccc(Cl)cc2)c(Cl)c1O` came in with an IC50 of 780 nM.
`COc1ccccc1C1CCN(C2CCC(NC(=O)/C=C/c3cc(F)c(F)cc3F)CC2)CC1` (stereo not given) returned an IC50 of 1600 nM.
As to `CN(C)CCN(C)Cc1ccc(-c2ccc3c(Nc4ccc(F)cc4Cl)ccnc3c2)o1`, the half-maximal inhibitory concentration (IC50) stood at 120 nM.
`CCOc1cc(C(=O)NC2CCN(Cc3ccccc3)CC2)ccc1-c1nc2cc(Cl)c(Cl)cc2[nH]1` showed an IC50 of 470 nM.
As for `O=C(Cc1ccccc1)NC1(c2ccccc2)CCN(CCc2c[nH]c3ccc(F)cc23)CC1`, the 50% inhibitory concentration (IC50) worked out at 880 nM.
In turn, `O=C(NC1CC1)c1ccc(N2CCC(Cc3ccccc3)CC2)c([N+](=O)[O-])c1` came in with a concentration for half-maximal inhibition (IC50) of 610 nM.
For the molecule `Fc1cccc(Nc2nc(NCc3ccc4ccsc4c3)nc(Nc3cccc(F)c3)n2)c1`, the 50% inhibitory concentration (IC50) came out at 1080 nM.
Turning to `CN(C)Cc1ccc(-c2ccc3ccnc(N)c3c2)cc1`, the IC50 was 380 nM.
In the case of `COc1ccc2nccc([C@@H](O)CN3CCC(NCCc4c[nH]c5ccccc45)CC3)c2c1` it was 210 nM.
For `Cc1cc(Nc2ccc(Cl)c(Cl)c2)n2nc(C)nc2n1`, the IC50 was 260 nM.
In turn, `O=C1c2ccccc2-n2c1nc1ccccc1c2=O` registered a concentration for half-maximal inhibition (IC50) of 860 nM.
Then `COc1ccc(Cl)cc1N1CCN(CCCNC(=O)c2ccc(-c3nc4cc(Cl)c(C)cc4[nH]3)c(F)c2)CC1`, with 180 nM.
The molecule `Cc1cc(CN2CCC(Nc3ncc(-c4ccsc4)c4nc(C(F)(F)F)ccc34)CC2)no1` yielded an IC50 of 1100 nM.
Consider `COc1ccc(Nc2nccc(N3CCC(NC(=O)Nc4cccc(C(C)=O)c4)C3)n2)cc1` (stereo not given), for which the concentration for half-maximal inhibition (IC50) was 820 nM.
Regarding `Cc1cc(N2CCCC2)nc(Nc2ccc(NC(=O)CC(C)C)cc2)n1`, the half-maximal inhibitory concentration (IC50) came to 840 nM.
On to `NC(N)=NC(=O)Nc1cc(Cl)c(Cl)c(C(F)(F)F)c1`, for which the half-maximal inhibitory concentration (IC50) came to 610 nM.
`NC(=O)c1cccc(Nc2nccc(Nc3ccc(Oc4c(Cl)cccc4Cl)c(Cl)c3)n2)c1` yielded an IC50 of 870 nM.
In turn, `CCCCCCCCNc1c2ccc(Cl)cc2nc2ccc(OC)cc12` returned an IC50 of 810 nM.
As to `CC(=O)COc1c(C2CCN(CCCCNC(=O)c3ccc(-c4ccc(C(F)(F)F)cc4)cc3)CC2)ccc2c1CCCC2`, the IC50 was determined as 780 nM.
`CC(C)CNCc1cccc(-c2ccc(CN(C(=O)NC3CCCCC3)C3CCN(Cc4ccccc4)CC3)cc2)c1` came in with an IC50 of 760 nM.
`Cc1ccccc1C1CCN(c2ncc(C(=O)Nc3ccccc3)cc2Cl)CC1`: the IC50 was 1010 nM.
On to `CCCc1cc(OC)c(CC2c3cc(O)c(Cl)cc3C(c3ccccc3)CN2C)cc1OC` (stereo not given), for which the half-maximal inhibitory concentration (IC50) was 430 nM.
Then `COc1cc(C)nc2ccc(NC(=O)c3cc(C(F)(F)F)cc(C(F)(F)F)c3)cc12`, with 910 nM.
For the molecule `CN1CCC(C(=O)N(Cc2ccc(-c3ccc(CNCCc4ccc(S(C)(=O)=O)cc4)cn3)cc2)Cc2ccc3c(c2)OCO3)CC1`, the IC50 is 1000 nM.
As to `Cn1c(NC2CCN(CC3CCN(C(=O)/C=C/c4ccc(Cl)c(Cl)c4)CC3)CC2)nc2ccccc21`, the IC50 was 150 nM.
Regarding `Cc1ccc(CC(C)NCC(O)c2cccc([N+](=O)[O-])c2)cc1` (stereo not given), the IC50 amounted to 760 nM.
`CCOc1cc(C(=O)Nc2cccnc2)cc(Br)c1OCCC(C)C`: the IC50 stood at 1080 nM.
In the case of `COc1cccc(COCC(O)CN(CCc2ccccn2)C(=O)c2ccccc2F)c1` (stereo not given), the concentration for half-maximal inhibition (IC50) came to 820 nM.
In the case of `Cc1nnsc1C(=O)Nc1cccc(-c2cccc(-c3nc4c(C)cccc4[nH]3)c2)c1`, the IC50 is 270 nM.
For `COc1ccc(Nc2nc(NN=Cc3cc(Br)c(O)cc3O)nc(Nc3ccc([N+](=O)[O-])cc3)n2)cc1`, the 50% inhibitory concentration (IC50) was found to be 900 nM.
In turn, `CCOC(=O)CN1Cc2cc(NCc3ccc4ccc5nc(C)[nH]c(=O)c5c4c3)ccc2C1=O` returned a half-inhibitory concentration (IC50) of 700 nM.
In the case of `CC(C)(C)c1ccc(NC(=O)c2cccc(CN3CCN(Cc4cccc(O)c4)CC3)c2)cc1`, the IC50 stood at 1400 nM.
In the case of `Cn1c2ccccc2c2c3ccccc3c(CNC(CO)(CO)CO)cc21`, the 50% inhibitory concentration (IC50) turned out to be 520 nM.
`CCOc1c(OC)ccc2c1CCN(CCN1CCC(NC(=O)c3ccc(-c4cccc(C(F)(F)F)c4C(F)(F)F)cc3)CC1)C2` gave an IC50 of 730 nM.
Regarding `CCCCCCc1cc(OC)c(OC)cc1C(C)Nc1ccnc2cc(Cl)ccc12` (stereo not given), the IC50 was found to be 490 nM.
